One test concerns SARS-CoV-2 virions. On the set-up: species or system SARS-CoV-2 isolate BetaCoV/France/IDF0372/2020.
Test [1] can be described thus: Liposome dye leakage assay. As to conditions: read-out: liposome EC50 (dye leakage); 200 nm liposomes filled with 50 mM carboxyfluorescein, 30 min incubation.
The subject of the next test is SARS-CoV-2. The format is cell-based, SARS-CoV-2 isolate BetaCoV/France/IDF0372/2020.
Test [2] concerns SARS-CoV-2 spike pseudoparticles. The format is cell-based. The following applies: read-out: IC50 against SARS-CoV-2 spike-mediated transduction.
For a further test, the system named is IAV. The format is cell-based, Influenza strain A/PR/8/34 (H1N1; PR8). The following applies: read-out: IAV IC50.

By EC50 is commonly meant the concentration that produces a half-maximal response. By IC50 is commonly meant the concentration at which inhibition is half-maximal. As for `O=C(O)COc1c2c(c(OCC(=O)O)c3c1C1CC3c3cc4c(cc31)C1CC4c3ccccc31)C1CC2c2cc3c(cc21)C1CC3c2ccccc21` [CLR05], the “morphology of treated SARS-CoV-2 virions (TEM)” value with SARS-CoV-2 virions is “largely disrupted”. In addition, the concentration for a half-maximal effect (EC50) in test [1] came out at 121 µM. In the test with SARS-CoV-2, the “inhibition of virus infection” value was about 70%. For the same molecule, the values for the IC50 (with SARS-CoV-2 (read-out: SARS-CoV-2 IC50); in test [2]; in the test on IAV) were 167 µM, 33 µM and 70.3 µM, respectively.

(Values after publication PMC9516563 (JACS Au, 2022).)
